Read-outs that look alike come from different tables or passages of the source. Where a SMILES comes first, the peptide text is derived from it.

We go through nine compounds from publication PMC3499488, “A Potential Peptide Therapeutic Derived from the Juxtamembrane Domain of the Epidermal Growth Factor Receptor” (PLoS ONE, 2012).

Series [1] concerns MDA-MB-231 cells. Nature of the series: Cell viability assay (CellTiter-Glo). In kind it is cell-based, human. From the text: Assays are run in triplicate.
The test system of series [2] is MDA-MB-231 cells. Nature of the series: Cellular entry of FAM-labeled peptides, live-cell fluorescent confocal microscopy. It counts as cell-based, human. The following applies: N-terminally FAM-labeled peptide, monitored up to 90 minutes and/or overnight incubation, confocal fluorescence. As for the experimental part:
(§1) MDA-MB-231 cells (1×10^5 cells per plate) were plated on 35 mm glass-bottom plates (MatTek Corporation, Ashland, MA), allowed to adhere overnight, then serum starved overnight and analyzed the following day in HBSS (Hank’s balanced salt solution). For real-time uptake of the FAM-labeled peptides, after recording background images, the FAM-labeled peptides were added and cells were imaged every two minutes over approximately 30 minutes. After 30 minutes, images were taken less frequently. Images from representative timepoints are shown. For overnight treatment, the cells were treated in serum-starved media, exchanged into HBSS the following day and imaged.

The test system of the next series is SK-N-MC cells. The experiment in a line: Cellular entry of FAM-labeled peptide, fluorescent confocal microscopy. In kind it is cell-based, human. The following applies: FAM-labeled peptide 1.5 µM, serum starved cells, confocal fluorescence. As to the method:
as §1
(§2) FAM-TE-64562 enters in SK-N-MC cells without any effect of EGF pretreatment. Confocal images of overnight serum starved MDA-MB-231 cells before treatment (0 min) and treated for 90 minutes (A) with 5.0 µM […], (B) with 1.25 µM FAM-Tat or (C) with 2.5 µM FAM-Tat for 60 minutes. (D) SK-N-MC were serum starved overnight and treated with FAM-TE-64562 (1.5 µM) for 16 minutes. (E) NR6 cells MC were serum starved overnight and treated with FAM-TE-64562 (5 µM) for 20 minutes. All scale bars are 20 µm. (TIF) Click here for additional data file.

The subject of another series is NR6 cells. The description is as above. It counts as cell-based. The following applies: FAM-labeled peptide 5 µM, serum starved cells, confocal fluorescence. As to the method: as §1, §2
[3] abbreviates: serum starved overnight (0.1% BSA, no FBS), 24 h treatment, CellTiter-Glo, mean ± S.D. of at least three independent experiments, read-out: EC50± S.D.

In turn, `CC[C@H](C)[C@H](NC(=O)[C@H](Cc1c[nH]cn1)NC(=O)[C@H](CCCNC(=N)N)NC(=O)[C@H](CCCNC(=N)N)NC(=O)[C@@H](N)CCCNC(=N)N)C(=O)N[C@H](C(=O)N[C@@H](CCCNC(=N)N)C(=O)N[C@@H](CCCCN)C(=O)N[C@@H](CCCNC(=N)N)C(=O)N[C@H](C(=O)N[C@@H](CC(C)C)C(=O)N[C@@H](CCCNC(=N)N)C(=O)N[C@@H](CCCNC(=N)N)C(=O)N[C@@H](CC(C)C)C(=O)N[C@@H](CC(C)C)C(=O)N[C@@H](CCC(N)=O)C(=O)N[C@@H](CCC(=O)O)C(=O)N[C@@H](CCCNC(=N)N)C(=O)O)[C@@H](C)O)C(C)C` [E-64562] (H-RRRHIVRKRTLRRLLQER-OH) had an EC50 in the series on MDA-MB-231 cells [1] (24 h) greater than 100 µM.
Consider `CC[C@H](C)[C@H](NC(=O)[C@H](Cc1c[nH]cn1)NC(=O)[C@H](CCCNC(=N)N)NC(=O)[C@H](CCCNC(=N)N)NC(=O)[C@H](CCCNC(=N)N)NC(=O)c1ccc2c(c1)C(=O)OC21c2ccc(O)cc2Oc2cc(O)ccc21)C(=O)N[C@H](C(=O)N[C@@H](CCCNC(=N)N)C(=O)N[C@@H](CCCCN)C(=O)N[C@@H](CCCNC(=N)N)C(=O)N[C@H](C(=O)N[C@@H](CC(C)C)C(=O)N[C@@H](CCCNC(=N)N)C(=O)N[C@@H](CCCNC(=N)N)C(=O)N[C@@H](CC(C)C)C(=O)N[C@@H](CC(C)C)C(=O)N[C@@H](CCC(N)=O)C(=O)N[C@@H](CCC(=O)O)C(=O)N[C@@H](CCCNC(=N)N)C(=O)O)[C@@H](C)O)C(C)C` [FAM-conjugated E-64562] (HELM PEPTIDE1{[O=C1OC2(c3ccc(O)cc3Oc3cc(O)ccc32)c2ccc(C(=O)[*:2])cc21].R.R.R.H.I.V.R.K.R.T.L.R.R.L.L.Q.E.R}$$$$V2.0), for which, in the series with MDA-MB-231 cells [2], the “fluorescence within the interior of the cell” value is given as “did not display any fluorescence within the interior of the cell”.
In the case of `CC[C@H](C)[C@H](NC(=O)[C@H](Cc1c[nH]cn1)NC(=O)[C@H](CCCNC(=N)N)NC(=O)[C@H](CCCNC(=N)N)NC(=O)[C@H](CCCNC(=N)N)NC(=O)CNC(=O)[C@H](CCCNC(=N)N)NC(=O)[C@H](CCCNC(=N)N)NC(=O)[C@H](CCCNC(=N)N)NC(=O)[C@H](CCC(N)=O)NC(=O)[C@H](CCCNC(=N)N)NC(=O)[C@H](CCCNC(=N)N)NC(=O)[C@H](CCCCN)NC(=O)[C@H](CCCCN)NC(=O)[C@H](CCCNC(=N)N)NC(=O)c1ccc2c(c1)C(=O)OC21c2ccc(O)cc2Oc2cc(O)ccc21)C(=O)N[C@H](C(=O)N[C@@H](CCCNC(=N)N)C(=O)N[C@@H](CCCCN)C(=O)N[C@@H](CCCNC(=N)N)C(=O)N[C@H](C(=O)N[C@@H](CC(C)C)C(=O)N[C@@H](CCCNC(=N)N)C(=O)N[C@@H](CCCNC(=N)N)C(=O)N[C@@H](CC(C)C)C(=O)N[C@@H](CC(C)C)C(=O)N[C@@H](CCC(N)=O)C(=O)N[C@@H](CCC(=O)O)C(=O)N[C@@H](CCCNC(=N)N)C(=O)O)[C@@H](C)O)C(C)C` [FAM-conjugated TE-64562] (HELM PEPTIDE1{[O=C1OC2(c3ccc(O)cc3Oc3cc(O)ccc32)c2ccc(C(=O)[*:2])cc21].R.K.K.R.R.Q.R.R.R.G.R.R.R.H.I.V.R.K.R.T.L.R.R.L.L.Q.E.R}$$$$V2.0), the “time until peptide entered cells” value in the series with SK-N-MC cells and in the series with NR6 cells was no more than 15 min each time.
For the compound `N=C(N)NCCC[C@H](NC(=O)c1ccc2c(c1)C(=O)OC21c2ccc(O)cc2Oc2cc(O)ccc21)C(=O)N[C@@H](CCCCN)C(=O)N[C@@H](CCCCN)C(=O)N[C@@H](CCCNC(=N)N)C(=O)N[C@@H](CCCNC(=N)N)C(=O)N[C@@H](CCC(N)=O)C(=O)N[C@@H](CCCNC(=N)N)C(=O)N[C@@H](CCCNC(=N)N)C(=O)N[C@@H](CCCNC(=N)N)C(=O)NCC(=O)O` [FAM-conjugated Tat, reference compound] (HELM PEPTIDE1{[O=C1OC2(c3ccc(O)cc3Oc3cc(O)ccc32)c2ccc(C(=O)[*:2])cc21].R.K.K.R.R.Q.R.R.R.G}$$$$V2.0), the “fluorescence within the interior of the cell” value in the series on MDA-MB-231 cells [2] is “did not display any fluorescence within the interior of the cell”.
For the compound `CC[C@H](C)[C@H](NC(=O)[C@H](CCCNC(=N)N)NC(=O)[C@H](CC(C)C)NC(=O)[C@H](CC(C)C)NC(=O)[C@H](C)NC(=O)[C@H](CCC(N)=O)NC(=O)[C@H](CC(N)=O)NC(=O)[C@@H]1CCCN1C(=O)[C@H](C)NC(=O)[C@H](CCC(=O)O)NC(=O)CNC(=O)[C@H](CO)NC(=O)[C@@H]1CCCN1C(=O)[C@@H](NC(=O)[C@H](CC(C)C)NC(=O)[C@@H]1CCCN1C(=O)[C@H](CCC(=O)O)NC(=O)[C@@H](NC(=O)CNC(=O)[C@H](CCCNC(=N)N)NC(=O)[C@H](CCCNC(=N)N)NC(=O)[C@H](CCCNC(=N)N)NC(=O)[C@H](CCC(N)=O)NC(=O)[C@H](CCCNC(=N)N)NC(=O)[C@H](CCCNC(=N)N)NC(=O)[C@H](CCCCN)NC(=O)[C@H](CCCCN)NC(=O)[C@H](CCCNC(=N)N)NC(=O)c1ccc2c(c1)C(=O)OC21c2ccc(O)cc2Oc2cc(O)ccc21)C(C)C)[C@@H](C)O)C(=O)O` [FAM-labeled TE-66482] (HELM PEPTIDE1{[O=C1OC2(c3ccc(O)cc3Oc3cc(O)ccc32)c2ccc(C(=O)[*:2])cc21].R.K.K.R.R.Q.R.R.R.G.V.E.P.L.T.P.S.G.E.A.P.N.Q.A.L.L.R.I}$$$$V2.0), the “fluorescence within the interior of the cell” value in the series with MDA-MB-231 cells [2] is reported as “did not display any fluorescence within the interior of the cell”.
`CC[C@H](C)[C@H](NC(=O)[C@H](CCCNC(=N)N)NC(=O)[C@H](CC(C)C)NC(=O)[C@H](CCC(=O)O)NC(=O)[C@H](CCC(=O)O)NC(=O)[C@H](CC(C)C)NC(=O)[C@H](C)NC(=O)[C@H](CCCNC(=N)N)NC(=O)[C@H](CCC(=O)O)NC(=O)[C@H](CCC(=O)O)NC(=O)[C@@H](NC(=O)[C@H](CCCNC(=N)N)NC(=O)[C@H](C)NC(=O)[C@H](CCCNC(=N)N)NC(=O)[C@H](CCC(=O)O)NC(=O)[C@H](CCC(=O)O)NC(=O)CNC(=O)[C@H](CCCNC(=N)N)NC(=O)[C@H](CCCNC(=N)N)NC(=O)[C@H](CCCNC(=N)N)NC(=O)[C@H](CCC(N)=O)NC(=O)[C@H](CCCNC(=N)N)NC(=O)[C@H](CCCNC(=N)N)NC(=O)[C@H](CCCCN)NC(=O)[C@H](CCCCN)NC(=O)[C@@H](N)CCCNC(=N)N)C(C)C)C(=O)N[C@@H](CCC(=O)O)C(=O)N[C@@H](CCC(=O)O)C(=O)O` [T-control] (H-RKKRRQRRRGEERARVEERALEELRIEE-OH): in the series on MDA-MB-231 cells [1] (setting [3]), the EC50 was greater than 100 µM.
As for `CC(C)C[C@H](NC(=O)[C@H](CC(C)C)NC(=O)[C@H](CCCNC(=N)N)NC(=O)[C@H](CCCNC(=N)N)NC(=O)[C@H](C)NC(=O)[C@H](C)NC(=O)[C@H](CCCNC(=N)N)NC(=O)[C@H](CCCCN)NC(=O)[C@H](CCCNC(=N)N)NC(=O)[C@H](C)NC(=O)[C@H](C)NC(=O)[C@H](Cc1c[nH]cn1)NC(=O)[C@H](CCCNC(=N)N)NC(=O)[C@H](CCCNC(=N)N)NC(=O)[C@H](CCCNC(=N)N)NC(=O)CNC(=O)[C@H](CCCNC(=N)N)NC(=O)[C@H](CCCNC(=N)N)NC(=O)[C@H](CCCNC(=N)N)NC(=O)[C@H](CCC(N)=O)NC(=O)[C@H](CCCNC(=N)N)NC(=O)[C@H](CCCNC(=N)N)NC(=O)[C@H](CCCCN)NC(=O)[C@H](CCCCN)NC(=O)[C@@H](N)CCCNC(=N)N)C(=O)N[C@@H](C)C(=O)N[C@@H](C)C(=O)N[C@@H](CCCNC(=N)N)C(=O)O` [T-poly-Ala] (H-RKKRRQRRRGRRRHAARKRAARRLLAAR-OH), the EC50 with MDA-MB-231 cells [1] (setting [3]) is greater than 100 µM.
For `CC[C@H](C)[C@H](NC(=O)[C@H](CCCNC(=N)N)NC(=O)[C@H](CC(C)C)NC(=O)[C@H](CC(C)C)NC(=O)[C@H](C)NC(=O)[C@H](CCC(N)=O)NC(=O)[C@H](CC(N)=O)NC(=O)[C@@H]1CCCN1C(=O)[C@H](C)NC(=O)[C@H](CCC(=O)O)NC(=O)CNC(=O)[C@H](CO)NC(=O)[C@@H]1CCCN1C(=O)[C@@H](NC(=O)[C@H](CC(C)C)NC(=O)[C@@H]1CCCN1C(=O)[C@H](CCC(=O)O)NC(=O)[C@@H](NC(=O)CNC(=O)[C@H](CCCNC(=N)N)NC(=O)[C@H](CCCNC(=N)N)NC(=O)[C@H](CCCNC(=N)N)NC(=O)[C@H](CCC(N)=O)NC(=O)[C@H](CCCNC(=N)N)NC(=O)[C@H](CCCNC(=N)N)NC(=O)[C@H](CCCCN)NC(=O)[C@H](CCCCN)NC(=O)[C@@H](N)CCCNC(=N)N)C(C)C)[C@@H](C)O)C(=O)O` [TE-66482] (H-RKKRRQRRRGVEPLTPSGEAPNQALLRI-OH), in the series on MDA-MB-231 cells [1] (setting [3]), the EC50 is greater than 100 µM.
Turning to `N=C(N)NCCC[C@H](NC(=O)[C@H](CCCNC(=N)N)NC(=O)[C@H](CCCNC(=N)N)NC(=O)[C@H](CCC(N)=O)NC(=O)[C@H](CCCNC(=N)N)NC(=O)[C@H](CCCNC(=N)N)NC(=O)[C@H](CCCCN)NC(=O)[C@H](CCCCN)NC(=O)[C@@H](N)CCCNC(=N)N)C(=O)NCC(=O)O` [Tat, reference compound] (H-RKKRRQRRRG-OH), the 50% effective concentration (EC50) in the series with MDA-MB-231 cells [1] (setting [3]) was greater than 100 µM.
